In one test the test system is H1975. As to the kind of experiment: CCK-8 proliferation, NCI-H1975 (H1975). It is filed as cell-based, Human. To be noted: Homo sapiens, NCI-H1975; Table B6, compounds designed based on the ALK inhibitors; H1975 cells; read-out: Inhibitory activity (IC50, nM) on tumor cell proliferation, H1975. The method in brief:
(§1)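 Tumor cells were cultured at 37°C with 5% CO2, seeded, and after 24h treated with compounds at 10 concentrations starting at 10µM (5-fold serial dilutions).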

Another test deals with SR. Briefly: CCK-8 proliferation, SR. Format: cell-based, Human. The settings on record: Homo sapiens; Table B6, compounds designed based on the ALK inhibitors; SR cells; read-out: Inhibitory activity (IC50, nM) on tumor cell proliferation, SR. The method in brief: as §1
Test [1] deals with T1, human Cereblon WT GST-tagged protein (Homo sapiens, UniProt Q96SW2).
T1 construct: purchased CISBIO 64BDCRBNPEH
T1 sequence (Q96SW2 whole entry): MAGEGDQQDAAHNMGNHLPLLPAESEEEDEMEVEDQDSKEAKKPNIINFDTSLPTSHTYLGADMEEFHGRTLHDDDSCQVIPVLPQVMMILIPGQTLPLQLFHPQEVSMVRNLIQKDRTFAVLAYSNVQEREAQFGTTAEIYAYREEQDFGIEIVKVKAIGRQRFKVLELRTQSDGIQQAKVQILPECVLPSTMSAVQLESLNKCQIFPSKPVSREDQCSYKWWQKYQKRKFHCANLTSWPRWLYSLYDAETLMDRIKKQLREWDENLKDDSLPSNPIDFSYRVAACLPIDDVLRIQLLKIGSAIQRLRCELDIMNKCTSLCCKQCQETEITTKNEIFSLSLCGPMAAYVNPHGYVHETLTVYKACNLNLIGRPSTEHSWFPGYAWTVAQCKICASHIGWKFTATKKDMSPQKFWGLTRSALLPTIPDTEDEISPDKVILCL
As to the kind of experiment: CRBN binding, HTRF (CEREBLON BINDING kit). To be noted: Table II-2, CRBN binding screening, HTRF; for inhibition at 0.5 µM: read-out: Inhibition rate (%) at 0.5µM; for inhibition at 2 µM: read-out: Inhibition rate (%) at 2 µM. The essentials: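 After 3 h at room temperature, emission at 665 and 620 nm was measured in a homogeneous time-resolved fluorescence format. Compounds competed with a Thalidomide-Re probe for GST-tagged wild-type human CRBN, which was labelled with a Eu anti-GST antibody.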

In another test the target is T2, ALK (Homo sapiens, UniProt Q96SW2+Q9HC35+Q9UM73).
T2 construct: evaluate the effects of the compounds of the present disclosure on the expression of target proteins in cells; endogenous in cells; host or cells: H2228
T2 sequence (Q9HC35+Q9UM73 fused): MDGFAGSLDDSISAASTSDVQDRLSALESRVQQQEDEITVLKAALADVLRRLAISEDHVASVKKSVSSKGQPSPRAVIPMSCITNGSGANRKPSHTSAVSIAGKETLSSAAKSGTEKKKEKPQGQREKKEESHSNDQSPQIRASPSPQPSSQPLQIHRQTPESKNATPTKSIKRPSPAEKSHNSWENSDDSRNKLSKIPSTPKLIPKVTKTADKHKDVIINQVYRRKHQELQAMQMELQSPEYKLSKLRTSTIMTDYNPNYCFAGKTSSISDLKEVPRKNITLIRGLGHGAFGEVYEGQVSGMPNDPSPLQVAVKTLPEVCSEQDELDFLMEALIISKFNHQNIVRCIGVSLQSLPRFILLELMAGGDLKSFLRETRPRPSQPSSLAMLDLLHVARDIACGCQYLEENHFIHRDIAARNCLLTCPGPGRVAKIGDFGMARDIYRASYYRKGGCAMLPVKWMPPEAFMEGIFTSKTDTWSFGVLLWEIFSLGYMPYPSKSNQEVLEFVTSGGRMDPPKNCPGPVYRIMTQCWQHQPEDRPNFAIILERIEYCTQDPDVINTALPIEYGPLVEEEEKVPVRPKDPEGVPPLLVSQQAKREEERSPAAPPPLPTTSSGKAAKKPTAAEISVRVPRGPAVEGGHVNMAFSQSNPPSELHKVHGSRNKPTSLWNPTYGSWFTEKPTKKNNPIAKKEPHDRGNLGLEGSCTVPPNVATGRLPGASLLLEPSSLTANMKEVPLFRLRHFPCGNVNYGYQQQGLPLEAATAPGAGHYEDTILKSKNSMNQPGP
T2 sequence (Q96SW2 whole entry): as the sequence (Q96SW2 whole entry) above
T2 sequence (Q16531 whole entry partner): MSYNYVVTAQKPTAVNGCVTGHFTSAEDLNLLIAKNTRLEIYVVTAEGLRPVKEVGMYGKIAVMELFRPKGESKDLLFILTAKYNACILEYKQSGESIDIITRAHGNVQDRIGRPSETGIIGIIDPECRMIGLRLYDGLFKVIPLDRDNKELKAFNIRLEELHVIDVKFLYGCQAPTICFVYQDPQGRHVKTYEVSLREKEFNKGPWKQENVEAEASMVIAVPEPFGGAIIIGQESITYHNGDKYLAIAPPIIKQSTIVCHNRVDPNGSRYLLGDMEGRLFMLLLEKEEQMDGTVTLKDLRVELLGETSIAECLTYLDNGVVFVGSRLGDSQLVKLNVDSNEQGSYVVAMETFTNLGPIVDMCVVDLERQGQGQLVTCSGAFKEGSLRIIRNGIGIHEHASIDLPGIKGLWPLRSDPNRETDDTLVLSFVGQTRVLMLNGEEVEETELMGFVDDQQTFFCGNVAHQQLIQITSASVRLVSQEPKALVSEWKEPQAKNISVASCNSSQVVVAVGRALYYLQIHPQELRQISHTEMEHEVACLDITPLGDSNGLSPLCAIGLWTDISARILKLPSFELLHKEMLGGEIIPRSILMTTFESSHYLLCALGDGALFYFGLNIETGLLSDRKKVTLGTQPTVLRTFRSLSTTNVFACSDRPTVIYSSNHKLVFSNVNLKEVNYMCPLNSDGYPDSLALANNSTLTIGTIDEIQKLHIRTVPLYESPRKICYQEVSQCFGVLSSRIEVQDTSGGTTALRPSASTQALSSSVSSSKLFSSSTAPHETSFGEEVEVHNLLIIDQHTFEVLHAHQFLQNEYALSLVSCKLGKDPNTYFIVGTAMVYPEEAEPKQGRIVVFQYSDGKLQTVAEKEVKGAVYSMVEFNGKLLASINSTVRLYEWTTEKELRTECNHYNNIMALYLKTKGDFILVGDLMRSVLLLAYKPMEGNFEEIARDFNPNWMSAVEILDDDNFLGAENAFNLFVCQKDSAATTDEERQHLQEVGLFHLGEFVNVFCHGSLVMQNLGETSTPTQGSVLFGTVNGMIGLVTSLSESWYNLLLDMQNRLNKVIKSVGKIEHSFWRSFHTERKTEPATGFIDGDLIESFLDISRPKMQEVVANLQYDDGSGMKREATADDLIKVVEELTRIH
As to the kind of experiment: Western blot degradation of ALK (H2228 Cell). Format: cell-based. The settings on record: Table D5. As for the experimental part: Conventional Western blot assay was performed to evaluate the effects of the compounds of the present disclosure on the expression of target proteins in cells.
(1) Cell Seeding and Protein Harvesting: The selected cells were processed according to the cell seeding procedure and protein harvesting procedure in Table III-2. Table III-2 Cell Seeding and Protein Harvesting Procedures
(2) To the collected supernatant, 5X SDS sample loading buffer was added, followed by denaturation at 95°C for 5 minutes. The denatured samples were then separated by SDS-PAGE electrophoresis on a polyacrylamide gel. Proteins were transferred to a nitrocellulose membrane (0.45 µm NC membrane), blocked with blocking buffer at room temperature for 1 hour, and subjected to antibody incubation and development procedures according to the antibody manufacturer's instructions (Cell Signaling Technology).
Half-Maximal Degradation Concentration value (the drug concentration required for degrading proteins by 50%, abbreviated as DC50) reads method: comparing the grayscale values of Western blot bands from drug-treated samples with those from blank DMSO-treated controls, and identifying the drug concentration range at which the grayscale value is half that of the DMSO-treated control bands.
DC50 values can be calculated using ImageJ software to measure grayscale values of Western blot bands from drug-treated samples. The concentration-response curve is fitted to estimate the drug concentration corresponding to half the grayscale value.
Target protein remaining (%) refers to the percentage of target protein remaining in hPBMC cells after treatment with protein degrader compounds.
Calculation method for target protein remaining (%): Use ImageJ software to measure grayscale values of Western blot bands from drug (protein degrader)-treated samples. The grayscale value of drug-treated bands is divided by that of internal control protein bands, and the resulting quotient is normalized to obtain the relative percentage of remaining target protein after protein degrader treatment.
Target protein degradation rate (%) = 100% - target protein remaining (%).

The subject of another test is H2228. As to the kind of experiment: CCK-8 proliferation, NCI-H2228 (H2228). Format: cell-based. To be noted: Homo sapiens, NCI-H2228; Table B6, compounds designed based on the ALK inhibitors; H2228 cells; read-out: Inhibitory activity (IC50, nM) on tumor cell proliferation, H2228. As for the experimental part:
The tumor cells used herein were cultured in a cell culture medium listed in table A1 at 37°C in an incubator with 5% CO2. Prior to experimentation, all cell lines used were correctly identified by STR profiling, and tested negative for mycoplasma contamination using a mycoplasma detection kit through routine screenings. Table A1. Tumor cells and cell culture medium used in the present disclosure
IC50 values of the compounds of the present disclosure (including the compounds in Table 1, and compounds of examples) were measured using the Meilun Cell Counting Kit-8 kit from Dalian Meilun Biotech Co., Ltd. Assay details are as follows: tumor cells were seeded in a 96-well plate at a density listed in Table A2. After 24h, 100 µL of the inoculated cells were treated with 0.5µL of the compounds of the present disclosure (including the compounds in Tables 1 and 2, and compounds of examples) at 10 different successively decreasing concentrations (starting at the highest concentration of 10µM; 5-fold serial dilutions). After the cells were treated with the compounds of the present disclosure for a period of time, the cell viability detection reagent was added to the culture medium for cell viability assessment according to the instructions provided with the CCK-8 kit. […] The growth inhibition of the compounds of the present disclosure on cells was plotted by Prism Graphpad software, and the IC50 values of the compounds of the present disclosure were calculated therefrom. […] Seeding protocol and treatment time for tumor cells

For `COc1cc(N2CCN(Cc3ccc(C4CCC(=O)NC4=O)cc3)CC2)ccc1Nc1ncc(Cl)c(Nc2ccccc2P(C)(C)=O)n1` (centres unmarked) [GT-03781, 3-(4-((4-(4-((5-chloro-4-((2-(dimethylphosphoryl)phenyl)amino)pyrimidin-2-yl)amino)-3-methoxyphenyl)piperazin-1-yl)methyl)phenyl)piperidine-2,6-dione], the IC50 in the test with H1975 fell in the range of 500 to 1000 nM. In the test on SR, the IC50 was 1 to 10 nM. Moreover, in test [1], the inhibition at 0.5 µM is 40 to 53% and the inhibition at 2 µM lay in the range of 60 to 80%. In addition, at ALK, the “Degradation of substrate protein ALK (substrate protein remaining %)” value (shortened to “Degradation … (substrate protein remaining %)”) is reported as “A (A is defined as 0% ≤ substrate protein remaining % ≤ 80%)”.

In the case of `COc1cc(N2CCN(Cc3ccc(C4CCC(=O)NC4=O)c(F)c3)CC2)ccc1Nc1ncc(Cl)c(Nc2ccccc2P(C)(C)=O)n1` (centres unmarked) [GT-03782, 3-(4-((4-(4-((5-chloro-4-((2-(dimethylphosphoryl)phenyl)amino)pyrimidin-2-yl)amino)-3-methoxyphenyl)piperazin-1-yl)methyl)-2-fluorophenyl)piperidine-2,6-dione], the IC50 in the test with SR lay in the range of 10 to 50 nM. In test [1], the inhibition at 0.5 µM was in the range of 40 to 53% and the inhibition at 2 µM lay within 80 to 100%. For the same molecule, at ALK, the “Degradation … (substrate protein remaining %)” value is “A (A is defined as 0% ≤ substrate protein remaining % ≤ 80%)”.

For the molecule `CCc1cc2c(cc1N1CCN(Cc3cccc(N4CCC(=O)NC4=O)c3)CC1)C(C)(C)c1[nH]c3cc(C#N)ccc3c1C2=O` [GT-07325, 8-(4-(3-(2,4-dioxotetrahydropyrimidin-1(2H)-yl)benzyl)piperazin-1-yl)-9-ethyl-6,6-dimethyl-11-oxo-6,11-dihydro-5H-benzo[b]carbazole-3-carbonitrile], the IC50 in the test with H2228 lay in the range of 100 to 500 nM; with SR, 10 to 50 nM. Besides, the “Degradation … (substrate protein remaining %)” value on ALK is on record as “A (A is defined as 0% ≤ substrate protein remaining % ≤ 80%)”.

As for `CCc1cc2c(cc1N1CCN(Cc3ccc(N4CCC(=O)NC4=O)cn3)CC1)C(C)(C)c1[nH]c3cc(C#N)ccc3c1C2=O` [GT-07326, 8-(4-((5-(2,4-dioxotetrahydropyrimidin-1(2H)-yl)pyridin-2-yl)methyl)piperazin-1-yl)-9-ethyl-6,6-dimethyl-11-oxo-6,11-dihydro-5H-benzo[b]carbazole-3-carbonitrile], the IC50 in the test on H2228 was in the range of 100 to 500 nM; with SR, 10 to 50 nM. Besides, the “Degradation … (substrate protein remaining %)” value on ALK is “A (A is defined as 0% ≤ substrate protein remaining % ≤ 80%)”.

As to `CCc1cc2c(cc1N1CCN(Cc3cccc(NC4CCC(=O)NC4=O)c3)CC1)C(C)(C)c1[nH]c3cc(C#N)ccc3c1C2=O` (centres unmarked) [GT-07328, 8-(4-(3-((2,6-dioxopiperidin-3-yl)amino)benzyl)piperazin-1-yl)-9-ethyl-6,6-dimethyl-11-oxo-6,11-dihydro-5H-benzo[b]carbazole-3-carbonitrile], the figures for the IC50 in the test on H2228 and with SR were 100 to 500 nM and 10 to 50 nM, respectively. Besides, the “Degradation … (substrate protein remaining %)” value at ALK is on record as “A (A is defined as 0% ≤ substrate protein remaining % ≤ 80%)”.

Turning to `COc1cc(N2CCN(Cc3ccc(N4CCC(=O)NC4=O)cc3F)CC2)ccc1Nc1ncc(Cl)c(Nc2ccccc2P(C)(C)=O)n1` [GT-07347, 1-(4-((4-(4-((5-chloro-4-((2-(dimethylphosphoryl)phenyl)amino)pyrimidin-2-yl)amino)-3-methoxyphenyl)piperazin-1-yl)methyl)-3-fluorophenyl)dihydropyrimidine-2,4(1H,3H)-dione], the IC50 in the test with H2228 lay in the range of 100 to 500 nM; with H1975, 100 to 500 nM; in the test on SR, 10 to 50 nM. In addition, the “Degradation … (substrate protein remaining %)” value on ALK is “A (A is defined as 0% ≤ substrate protein remaining % ≤ 80%)”.

As to `Cc1cc(Nc2ncc(Cl)c(Nc3ccccc3S(=O)(=O)C(C)C)n2)c(OC(C)C)cc1C1CCN(Cc2cccc(NC3CCC(=O)NC3=O)c2)CC1` (centres unmarked) [GT-07594, 3-((3-((4-(4-((5-chloro-4-((2-(isopropylsulfonyl)phenyl)amino)pyrimidin-2-yl)amino)-5-isopropoxy-2-methylphenyl)piperidin-1-yl)methyl)phenyl)amino)pip eridine-2,6-dione], the figures for the IC50 with H2228 and with SR were 100 to 500 nM and 50 to 100 nM, respectively. In addition, the “Degradation … (substrate protein remaining %)” value at ALK is “A (A is defined as 0% ≤ substrate protein remaining % ≤ 80%)”.

For the molecule `Cc1cc(Nc2ncc(Cl)c(Nc3ccccc3S(=O)(=O)C(C)C)n2)c(OC(C)C)cc1C1CCN(Cc2cc(N3CCC(=O)NC3=O)ncc2F)CC1` [GT-07595, 1-(4-((4-(4-((5-chloro-4-((2-(isopropylsulfonyl)phenyl)amino)pyrimidin-2-yl)amino)-5-isopropoxy-2-methylphenyl)piperidin-1-yl)methyl)-5-fluoropyridin-2-yl)dihydropyrimidine-2,4(1H,3H)-dione], the IC50 in the test on H2228 lay within 500 to 1000 nM; in the test on SR, 100 to 500 nM. Besides, at ALK, the “Degradation … (substrate protein remaining %)” value was “A (A is defined as 0% ≤ substrate protein remaining % ≤ 80%)”.

In the case of `CCc1cc2c(cc1N1CCN(Cc3ccnc(N4CCC(=O)NC4=O)c3)CC1)C(C)(C)c1[nH]c3cc(C#N)ccc3c1C2=O` [GT-07834, 8-(4-((2-(2,4-dioxotetrahydropyrimidin-1(2H)-yl)pyridin-4-yl)methyl)piperazin-1-yl)-9-ethyl-6,6-dimethyl-11-oxo-6,11-dihydro-5H-benzo[b]carbazole-3-carbonitrile], on ALK, the “Degradation … (substrate protein remaining %)” value is listed as “A (A is defined as 0% ≤ substrate protein remaining % ≤ 80%)”.

As to `CCc1cc2c(cc1N1CCN(Cc3cncc(N4CCC(=O)NC4=O)c3)CC1)C(C)(C)c1[nH]c3cc(C#N)ccc3c1C2=O` [GT-07835, 8-(4-((5-(2,4-dioxotetrahydropyrimidin-1(2H)-yl)pyridin-3-yl)methyl)piperazin-1-yl)-9-ethyl-6,6-dimethyl-11-oxo-6,11-dihydro-5H-benzo[b]carbazole-3-carbonitrile], the “Degradation … (substrate protein remaining %)” value at ALK is “A (A is defined as 0% ≤ substrate protein remaining % ≤ 80%)”.

For the molecule `CCc1cc2c(cc1N1CCN(Cc3cc(C4CCC(=O)NC4=O)cnc3F)CC1)C(C)(C)c1[nH]c3cc(C#N)ccc3c1C2=O` (centres unmarked) [GT-07836, 8-(4-((5-(2,6-dioxopiperidin-3-yl)-2-fluoropyridin-3-yl)methyl)piperazin-1-yl)-9-ethyl-6,6-dimethyl-11-oxo-6,11-dihydro-5H-benzo[b]carbazole-3-carbonitrile], the “Degradation … (substrate protein remaining %)” value on ALK was “A (A is defined as 0% ≤ substrate protein remaining % ≤ 80%)”.

Take `CCc1cc2c(cc1N1CCC(N3CCN(Cc4ncc(N5CCC(=O)NC5=O)cc4F)CC3)CC1)C(C)(C)c1[nH]c3cc(C#N)ccc3c1C2=O` [GT-07924, 8-(4-(4-((5-(2,4-dioxotetrahydropyrimidin-1(2H)-yl)-3-fluoropyridin-2-yl)methyl)piperazin-1-yl)piperidin-1-yl)-9-ethyl-6,6-dimethyl-11-oxo-6,11-dihydro-5H-benzo[b]carbazole-3-carbonitrile]: on ALK, the “Degradation … (substrate protein remaining %)” value is on record as “A (A is defined as 0% ≤ substrate protein remaining % ≤ 80%)”.

The values above are taken from patent EP4678638A1, “NEW E3 UBIQUITIN LIGASE LIGAND, PROTEIN DEGRADATION AGENT AND USE THEREOF” (priority 2023, dated 2024).
